#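 Test compounds were applied to cells in 96-well plates for 48 hours at 5 doses. GI50 is the concentration that inhibits growth by half. Definition used: TGI = concentration required for complete inhibition of growth.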
# Legend:
# Assay in all cases: inhibition of tumour cell growth, NCI panel, 48 h
# HL-60(TB) leukemia = tested on: HL-60(TB) leukemia
# OVCAR-8 ovarian = tested on: OVCAR-8 ovarian
# IGROV1 ovarian = tested on: IGROV1 ovarian
# SF-295 CNS = tested on: SF-295 CNS
# HCC-2998 colon = tested on: HCC-2998 colon
# NCI-H226 lung = tested on: NCI-H226 lung
# OVCAR-3 ovarian = tested on: OVCAR-3 ovarian
# SN12C renal = tested on: SN12C renal
# HT29 colon = tested on: HT29 colon
# PC-3 prostate = tested on: PC-3 prostate
Structure (SMILES),TGI (HL-60(TB) leukemia) [µM],TGI (OVCAR-8 ovarian) [µM],TGI (IGROV1 ovarian) [µM],TGI (SF-295 CNS) [µM],TGI (HCC-2998 colon) [µM],TGI (NCI-H226 lung) [µM],TGI (OVCAR-3 ovarian) [µM],TGI (SN12C renal) [µM],TGI (HT29 colon) [µM],TGI (PC-3 prostate) [µM],GI50 (OVCAR-8 ovarian) [µM],GI50 (PC-3 prostate) [µM],GI50 (IGROV1 ovarian) [µM],GI50 (HCC-2998 colon) [µM],GI50 (NCI-H226 lung) [µM],GI50 (OVCAR-3 ovarian) [µM],GI50 (SN12C renal) [µM],GI50 (HT29 colon) [µM],GI50 (SF-295 CNS) [µM],GI50 (HL-60(TB) leukemia) [µM]
C#Cc1c(C)c(/C=C/C(C)=C/C(=O)OC)n(C)c1C,79.4,> 100,> 100,> 100,> 100,> 100,> 100,> 100,> 100,–,–,–,–,–,–,–,–,–,–,–
CCOc1c(N=Nc2ccccc2Cl)c(-c2ccccc2)nn1C(=S)S,> 100,> 100,> 100,> 100,–,93.8,90.1,34.8,> 100,> 100,–,–,–,–,–,–,–,–,–,–
c1ccc2c(c1)oc1ccc3nsnc3c12,> 100,–,> 100,> 100,> 100,> 100,> 100,–,> 100,–,–,–,–,–,–,–,–,–,–,–
O=S(=O)(NCn1ccc2ccccc21)c1ccccc1,41,> 100,> 100,> 100,> 100,> 100,> 100,> 100,> 57.2,–,–,–,–,–,–,–,–,–,–,–
COc1cc(NC(=O)CCSc2nc3ccc(C)cc3c(=O)n2Cc2ccccc2)cc(OC)c1OC,–,> 100,> 100,–,> 100,12.3,> 100,> 100,> 100,> 100,5.01,5.39,27.7,> 100,2.66,5.05,78,> 100,–,–
c1cncc(CNCc2cccnc2)c1,> 100,> 100,> 100,> 100,–,> 100,> 100,> 100,> 100,> 100,–,–,–,–,–,–,–,–,–,–
CCCCCCCCNCCC[C@@H](C)[C@H]1CC[C@H]2[C@@H]3[C@H](OCCCN)C[C@H]4C[C@H](OCCCN)CC[C@]4(C)[C@H]3C[C@H](OCCCN)[C@]12C,–,4.07,3.25,4.43,7,23.6,21.5,5.68,7.59,> 49.3,1.82,5.58,1.49,2.04,5.21,5,1.21,1.71,0.993,–
O=C(c1ccccc1)c1c(NCC(O)CN2CCOCC2)n(Cc2ccccc2)c(=O)n(Cc2ccccc2)c1=O (stereo not drawn),–,> 100,> 100,> 100,4.86,> 95.1,> 77.3,> 100,> 62.9,> 100,48.9,39.4,38.5,1.26,31.6,27.6,46,26.4,36.2,–
O=C1C=CC(=O)c2c(O)c(NCCOCCO)c(Cl)c(O)c21,> 100,20.4,18.1,24.1,–,32.4,–,23,–,–,–,–,–,–,–,–,–,–,–,–
CC(=O)[O-].[Mn+3].[O-]c1ccccc1C=NCCNCCN=Cc1ccccc1[O-],> 100,> 100,> 100,> 100,–,> 100,> 100,> 100,> 100,–,> 100,–,> 100,–,> 100,> 100,> 100,> 100,> 100,> 100
Cc1c(-c2ccnc(N)n2)c2c(n1Cc1ccccc1)C(=O)c1ccccc1C2=O,–,–,54.7,15,35.8,–,21.3,> 100,–,> 100,–,49.1,4.84,12.9,–,2.83,> 100,–,3.12,–
C=CCC1=C(C)C[C@@H]2CCC(=O)C=C12,> 100,> 100,> 100,> 100,–,–,> 100,> 100,> 100,–,–,–,–,–,–,–,–,–,–,–
Cc1cccc(C)c1NC(=O)CCc1nc(=S)[nH][nH]1,> 100,> 100,> 100,–,> 100,> 100,–,> 100,–,–,–,–,–,–,–,–,–,–,–,–
CC(=O)O[C@]1(C)OC(=O)[C@@H](CC(C)C)N1[N+](=O)[O-],> 100,> 100,> 100,> 100,> 100,> 100,> 100,> 100,> 100,–,–,–,–,–,–,–,–,–,–,–
CC(=O)OCC(=O)[C@@]12OC(C)(C)O[C@@H]1C[C@H]1[C@@H]3CC(C=O)=C4C=C(OCCCl)CC[C@]4(C)[C@@]3(F)[C@@H](O)C[C@@]12C,97.1,> 100,> 100,46.4,29.5,64.8,> 100,> 100,36.8,–,–,–,–,–,–,–,–,–,–,–
O=C([O][Sn]([O]C(=O)c1ccccn1)([c]1ccccc1)[c]1ccccc1)c1ccccn1,–,24,4.03,31.9,26,29.6,2.98,26.9,7.97,25.6,11.3,11.8,1.83,13.1,14.7,1.62,13.8,3.06,16.1,–
CCCC(=O)N[C@H]1C2C3CC4C5CC(C42)C1(C)C53 (stereo partly drawn),> 100,–,> 100,> 100,> 100,> 100,> 100,> 100,> 100,–,–,–,–,–,–,–,–,–,–,–
Cc1c2c(c(C)c3c4c(oc13)CCCC4)C=NCC2,43.4,23.1,26.5,31.7,36.1,31.5,31.5,31.7,29,–,–,–,–,–,–,–,–,–,–,–
O=c1ncccn1C1OC(CO)C(O)C1O (stereo not drawn),–,> 100,> 100,–,> 100,> 100,–,> 100,> 100,–,–,–,–,–,–,–,–,–,–,–
COc1ccc(CCn2c(=O)c3ccccc3n(C)c2=O)cc1,–,> 100,> 100,> 100,> 100,–,> 100,> 100,> 100,–,–,–,–,–,–,–,–,–,–,–
